Assay results: PubChem BioAssay (NCI)
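Tested at 5 concentrations; 48 h exposure; 96-well plates; endpoints linearly interpolated, else capped at highest concentration. At the TGI there is no net growth.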

Tests used:
Test in all cases: NCI anticancer screen, dose series, 48 h
[1] = system: HOP-62 NSCLC
[2] = system: K-562 leukemia
[3] = system: 786-0 renal
[4] = system: NCI-H23 lung
[5] = system: IGROV1 ovarian
[6] = system: SNB-19 CNS
[7] = system: SW-620 colon
[8] = system: OVCAR-3 ovarian
[9] = system: UO-31 renal
[10] = system: DMS 273 small cell lung
[11] = system: HCC-2998 colon
[12] = system: SNB-75 CNS
[13] = system: RXF 393 renal
[14] = system: OVCAR-5 ovarian
[15] = system: HCT-15 colon
[16] = system: OVCAR-8 ovarian
[17] = system: M14 melanoma
[18] = system: A549 NSCLC
[19] = system: SK-MEL-2 melanoma
[20] = system: COLO 205 colon
[21] = system: RXF-631 renal
[22] = system: KM20L2 colon
[23] = system: SF-295 CNS
[24] = system: NCI-H522 lung
[25] = system: XF 498 CNS
[26] = system: MALME-3M melanoma
[27] = system: M19-MEL melanoma
[28] = system: DMS 114 small cell lung
[29] = system: SNB-78 CNS
[30] = system: DLD-1 colon
[31] = system: KM12 colon
[32] = system: HT29 colon
[33] = system: EKVX NSCLC
[34] = system: UACC-62 melanoma
[35] = system: TK-10 renal
[36] = system: ACHN renal
[37] = system: NCI-H226 lung
[38] = system: HCT-116 colon
[39] = system: LXFL 529 NSCLC
[40] = system: U251 CNS
[41] = system: A498 renal
[42] = system: SN12C renal
[43] = system: LOX IMVI melanoma
[44] = system: SK-MEL-28 melanoma
[45] = system: CCRF-CEM leukemia
[46] = system: OVCAR-4 ovarian
[47] = system: NCI-H460 lung
[48] = system: SF-539 CNS
[49] = system: UACC-257 melanoma
[50] = system: SF-268 CNS
[51] = system: SK-MEL-5 melanoma
[52] = system: HOP-18 NSCLC
[53] = system: SK-OV-3 ovarian
[54] = system: HL-60(TB) leukemia
[55] = system: MOLT-4 leukemia
[56] = system: CAKI-1 renal
[57] = system: RPMI-8226 leukemia
[58] = system: HOP-92 NSCLC
[59] = system: SR leukemia

Measured: TGI

COC(=O)CCC(NC(=S)N/N=C(\C)c1ccco1)C(=O)OC (stereo not given)
not listed: [55] | [56] | [57] | [58] | [59]
> 100 µM: all other assays above

C[C@]12CCC3[C@@H](CC[C@@H]4c5nonc5CC[C@]34C)C1CCC2=O (stereo not given in full)
53.9 µM: [28]
31.4 µM: [51]
39.7 µM: [47]
92.4 µM: [18]
79.3 µM: [23]
59.8 µM: [39]
92.5 µM: [4]
51.5 µM: [58]
44 µM: [57]
52.6 µM: [26]
63.8 µM: [44]
84 µM: [46]
39 µM: [9]
50.2 µM: [31]
41.1 µM: [32]
38.9 µM: [54]
33.3 µM: [20]
64.3 µM: [3]
77.7 µM: [36]
37 µM: [17]
32.5 µM: [40]
68.2 µM: [41]
62.7 µM: [37]
61 µM: [55]
52.3 µM: [34]
44.4 µM: [25]
47.1 µM: [10]
78.3 µM: [13]
93.6 µM: [12]
40.4 µM: [8] | [49]
95.5 µM: [56]
45.9 µM: [48]
31.7 µM: [38]
50.1 µM: [24]
39.5 µM: [43]
52.8 µM: [27]
61.3 µM: [45]
99.7 µM: [29]
83.1 µM: [33]
56.5 µM: [19]
47.3 µM: [42]
not listed: [11] | [30] | [59]
> 100 µM: all other assays above

COc1cc(C2C(C(=O)O)=C(CO)Oc3cc4c(cc32)OCO4)cc(OC)c1OC (stereo not given)
not listed: [1] | [3] | [8] | [11] | [19] | [24] | [26] | [31] | [37] | [39] | [41] | [48] | [50] | [59]
> 100 µM: all other assays above

CCc1ccccc1N1C(=O)C(=O)C(c2nc3ccccc3s2)C(=O)C1=O
not listed: [10] | [12] | [20] | [41]
> 100 µM: all other assays above

Nc1ccc(N)c2c1C(=O)c1ccccc1C2=O
94 µM: [35]
72.9 µM: [11]
not listed: [13] | [23] | [54] | [59]
> 100 µM: all other assays above
